The test system of data set [1] is BSO-Induced Cataract Formation. The data set is described as follows: BSO-induced cataract formation in rats (slit-lamp, lenses opaque or clear). As to conditions: read at 14-15 days; for animals developed cataract: new born rats.
Description: Effects of CLX-SYN-G165-001 on BSO-Induced Cataract Formation in Rats Sprague-Dawley rats (female, timed pregnant) were housed in the Research Animal Facilities and given food and water ad libitum. They were breast fed.
Animals were divided into 3 groups and given 4 injections per day for 2 days, according to the following protocol: Each experimental group consisted of 20-25 animals. BSO, L-Buthionine-(S,R)-sulfoximine was dissolved in 0.1 M NaCl and injected at a concentration of 3 mmol/g body weight (total volume not exceeding 60 ml). CLX-SYN-G165-001 was dissolved in ethanol: NaCl (50:50, v/v). BSO was injected subcutaneously into new born animals (age 28-36 hours). CLX-SYN-G165-001 (15 mg/kg b.w.) was given intraperitoneally. An equivalent volume of ethanol: NaCl and/or NaCl was given to the controls. Rats were sacrificed when they opened their eyes (14-15 days). Cataract formation was visualized with a slit-lamp microscope and the lenses were classified as opaque or clear.
The test system of the next data set is Lens GSH. The data set is described as follows: Lens GSH and GSSG level (enzymatic recycling method) in BSO-treated rats.

Each structure is given as a SMILES string.

Description for Lens GSH: Animals were divided into 3 groups and given 4 injections per day for 2 days, according to the following protocol: Each experimental group consisted of 20-25 animals. BSO, L-Buthionine-(S,R)-sulfoximine was dissolved in 0.1 M NaCl and injected at a concentration of 3 mmol/g body weight (total volume not exceeding 60 ml). CLX-SYN-G165-001 was dissolved in ethanol: NaCl (50:50, v/v). BSO was injected subcutaneously into new born animals (age 28-36 hours). CLX-SYN-G165-001 (15 mg/kg b.w.) was given intraperitoneally. An equivalent volume of ethanol: NaCl and/or NaCl was given to the controls. Rats were sacrificed when they opened their eyes (14-15 days). […] Isolation of lenses: After decapitation of the animals the eyes were carefully dissected out from the ciliary body and the lens capsule was released from the enucleated eye globes. Each lens was weighed and placed in a microfuge tube and frozen immediately in liquid nitrogen for future analyses. Glutathione: Frozen lenses were homogenized in 5% sulfosalicylic acid, 5 mM EDTA, ice cold and bubbled with argon. After centrifugation GSH and GSSG were determined by the enzymatic recycling method.

For `CCCCS(=N)(=O)CCC(N)C(=O)O` [BSO, L-Buthionine-(S,R)-sulfoximine, reference compound], the animals developed cataracts in data set [1] (BSO alone, subcutaneously, new born rats (age 28-36 hours)) came out at 100%. Besides, the “GSH in the lenses, % lower than that of the control lenses” value with Lens GSH (BSO-treated rats) is recorded as “about 55%”.

`CC(C)=CCC[C@@H](C)[C@H]1CC[C@@]2(C)C3=C(CC[C@]12C)[C@@]1(C)CC[C@H](OC(=O)CCCC[C@@H]2CCSS2)C(C)(C)[C@@H]1CC3` [CLX-SYN-G165-001]: the animals developed cataract in data set [1] (BSO plus CLX-SYN-G165-001 (15 mg/kg b.w. intraperitoneally), 4 injections per day for 2 days, p<0.005 vs BSO only) was 13%; in data set [1] (CLX-SYN-G165-001 without BSO (15 mg/kg b.w. intraperitoneally)) it was 0%. In addition, the “lens GSH level, % that of control level” value with Lens GSH (treatment with BSO and CLX-SYN-G165-001, p<0.001 vs BSO only) is 84-87%.
